We go through three compounds from PMC10448230 (RSC Advances, 2023).

The target of test [1] is electric eel acetylcholinesterase (type-IV-S) (Electrophorus electricus, UniProt O42275). The test is described as follows: biochemical. The format is biochemical.
The target of test [2] is equine butyrylcholinesterase (Equus caballus, UniProt P81908). The test is described as follows: Butyrylcholinesterase inhibition. The format is biochemical.

Read-outs that look alike come from different tables or passages of the source.

Sequence of electric eel acetylcholinesterase (type-IV-S) (O42275 24-633): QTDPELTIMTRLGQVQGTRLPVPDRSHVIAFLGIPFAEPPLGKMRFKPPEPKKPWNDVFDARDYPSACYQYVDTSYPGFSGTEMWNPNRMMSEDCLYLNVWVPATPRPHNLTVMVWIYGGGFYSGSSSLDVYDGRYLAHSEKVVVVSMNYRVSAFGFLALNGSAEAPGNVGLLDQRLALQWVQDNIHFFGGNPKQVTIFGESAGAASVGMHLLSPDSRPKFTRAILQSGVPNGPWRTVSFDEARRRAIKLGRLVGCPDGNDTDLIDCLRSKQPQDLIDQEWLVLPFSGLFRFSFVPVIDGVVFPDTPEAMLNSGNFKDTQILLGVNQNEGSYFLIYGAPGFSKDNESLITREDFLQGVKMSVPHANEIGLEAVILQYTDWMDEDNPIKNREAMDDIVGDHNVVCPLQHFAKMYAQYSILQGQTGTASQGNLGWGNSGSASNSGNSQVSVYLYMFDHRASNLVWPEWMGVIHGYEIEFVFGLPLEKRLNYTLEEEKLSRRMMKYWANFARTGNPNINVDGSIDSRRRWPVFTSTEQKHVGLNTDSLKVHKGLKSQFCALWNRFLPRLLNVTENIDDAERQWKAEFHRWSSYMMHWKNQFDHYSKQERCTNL
Sequence of equine butyrylcholinesterase (P81908 whole entry): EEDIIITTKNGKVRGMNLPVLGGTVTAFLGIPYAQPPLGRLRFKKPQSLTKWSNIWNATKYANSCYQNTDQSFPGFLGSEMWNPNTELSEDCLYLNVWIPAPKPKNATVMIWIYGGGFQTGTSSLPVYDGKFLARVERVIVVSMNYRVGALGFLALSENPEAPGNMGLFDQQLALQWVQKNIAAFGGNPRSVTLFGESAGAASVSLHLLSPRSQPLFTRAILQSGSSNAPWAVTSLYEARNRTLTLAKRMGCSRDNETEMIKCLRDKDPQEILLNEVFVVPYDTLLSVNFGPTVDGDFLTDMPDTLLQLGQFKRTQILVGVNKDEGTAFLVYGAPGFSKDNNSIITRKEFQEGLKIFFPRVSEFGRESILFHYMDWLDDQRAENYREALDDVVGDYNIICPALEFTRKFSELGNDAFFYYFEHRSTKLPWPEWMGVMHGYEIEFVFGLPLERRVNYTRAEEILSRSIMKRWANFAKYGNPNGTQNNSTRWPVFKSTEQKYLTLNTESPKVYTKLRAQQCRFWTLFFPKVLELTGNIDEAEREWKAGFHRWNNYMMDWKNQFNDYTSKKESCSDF

Take “2,2′-((Thiobis(4,1-phenylene))bis(oxy))bis(N′-((E)-4-fluorobenzylidene)acetohydrazide) [4s]”: the IC50 was 91.5 ± 0.615 µM in test [1] (read-out: AChE IC50 (μM) ± SD, NA = not active, galantamine as positive control) and 36.4 ± 0.702 µM in test [2] (read-out: BChE IC50 (μM) ± SD, NA = not active, galantamine as positive control).
For the compound `CCCC/C=N/NC(=O)COc1ccc(Sc2ccc(OCC(=O)N/N=C/CCCC)cc2)cc1` [4x, 2,2′-((Thiobis(4,1-phenylene))bis(oxy))bis(N′-((E)-pentylidene)acetohydrazide)], the values for the 50% inhibitory concentration (IC50) in test [1] and in test [2] were 186.3 ± 0.876 µM and 103.1 ± 0.877 µM, respectively.
On to `CCC/C=N/NC(=O)COc1ccc(Sc2ccc(OCC(=O)N/N=C/CCC)cc2)cc1` [4y, 2,2′-((Thiobis(4,1-phenylene))bis(oxy))bis(N′-((E)-butylidene)acetohydrazide)], for which the figures for the IC50 in test [1] and in test [2] were 122.6 ± 0.943 µM and 101.1 ± 0.938 µM, respectively.
